Entries after “also recorded” stand apart in the source; their conditions may differ. Like-named read-outs stand apart in the source and are kept apart here.
Assays:
HSV-2 = details: cited from earlier work
HSV-1 = details: cited from earlier work
CHIKV [1] = format: cell-based, Chikungunya virus
ZIKV [2] = details: cited from earlier work
CHIKV [3] = details: cited from earlier work
MERS-CoV [4] = details: cited from earlier work
SARS-CoV [5] = details: cited from earlier work
Vero E6 cells = experiment: Cytotoxicity; details: highest dose tested
SAH hydrolase = SAH hydrolase (Homo sapiens, UniProt P23526); format: biochemical
SARS-CoV [6] = format: cell-based, severe acute respiratory syndrome coronavirus
MERS-CoV [7] = format: cell-based, Middle East respiratory syndrome coronavirus
ZIKV [8] = format: cell-based, Zika virus

Chain of SAH hydrolase (P23526 whole entry): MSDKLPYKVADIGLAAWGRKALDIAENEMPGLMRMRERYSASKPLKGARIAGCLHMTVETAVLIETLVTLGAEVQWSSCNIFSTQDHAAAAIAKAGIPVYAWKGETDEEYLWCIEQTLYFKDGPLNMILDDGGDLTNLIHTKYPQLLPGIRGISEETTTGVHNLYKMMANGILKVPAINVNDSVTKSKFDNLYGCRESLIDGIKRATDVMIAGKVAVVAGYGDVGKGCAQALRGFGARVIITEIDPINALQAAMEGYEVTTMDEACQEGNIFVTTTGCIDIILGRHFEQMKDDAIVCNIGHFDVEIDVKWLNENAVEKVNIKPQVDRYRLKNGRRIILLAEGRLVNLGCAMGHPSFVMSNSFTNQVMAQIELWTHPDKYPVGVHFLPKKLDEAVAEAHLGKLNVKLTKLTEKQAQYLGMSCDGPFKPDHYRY

Nc1ncnc2c1ncn2C1CC(CCO)C(O)C1O (single isomer, unassigned; (-)) [(−)-homoaristeromycin]
activity against HSV-2 (in words) (HSV-2): inactive | activity against HSV-1 (in words) (HSV-1): inactive

Nc1ncnc2c1ncn2[C@H]1[C@H](O)[C@H](O)[C@@H](CO)[C@H]1F [Compound 2a, 6′-β-fluoro-aristeromycin]
antiviral activity against CHIKV (in words) (CHIKV [1]): inactive

Nc1ncnc2c1ncn2[C@H]1[C@H](O)[C@H](O)[C@@H](CO)C1(F)F [Compound 2b, 6,6′-difluoro-aristeromycin]
antiviral activity against ZIKV (in words) (ZIKV [2]): broad-spectrum antiviral activity | antiviral activity against ZIKV (in words) (ZIKV [2]; listed as 2): potent antiviral activities | antiviral activity against CHIKV (in words) (CHIKV [3]): broad-spectrum antiviral activity | antiviral activity against CHIKV (in words) (CHIKV [3]; listed as 2): potent antiviral activities | antiviral activity against MERS-CoV (in words) (MERS-CoV [4]): broad-spectrum antiviral activity; also recorded: potent antiviral activities | antiviral activity against SARS-CoV (in words) (SARS-CoV [5]): broad-spectrum antiviral activity; also recorded: potent antiviral activities

Nc1ncnc2c1ncn2[C@H]1[C@H](O)[C@H](O)[C@@H](CCO)[C@H]1F [Compound 3a, (1R,2S,3S,4R,5R)-3-(6-Amino-9H-purin-9-yl)-4-fluoro-5-(2-hydroxyethyl)cyclopentane-1,2-diol]
selectivity index (SI) (CHIKV [1]): more than 2083 | concentration up to which no noticeable cytotoxicity was seen (Vero E6 cells): > 250 µM | potency towards SAH hydrolase relative to 3d (SAH hydrolase): 5.6 times

OCC[C@@H]1[C@@H](O)[C@@H](O)[C@H](n2cnc3c(O)ncnc32)[C@@H]1F [Compound 3c, 9-((1S,2R,3R,4R,5S)-2-fluoro-4,5-dihydroxy-3-(2-hydroxyethyl)cyclopentyl)-1,9-dihydro-6H-purin-6-one]
inhibition of SAH hydrolase at the highest dose tested (in words) (SAH hydrolase): no inhibitory activity was observed

Nc1ncnc2c1ncn2[C@H]1[C@H](O)[C@H](O)[C@@H](CCO)C1(F)F [Compound 3d]
antiviral activity against CHIKV (in words) (CHIKV [1]): did not exhibit antiviral activity | antiviral activity against SARS-CoV (in words) (SARS-CoV [6]): did not exhibit antiviral activity | antiviral activity against MERS-CoV (in words) (MERS-CoV [7]): did not exhibit antiviral activity | antiviral activity against ZIKV (in words) (ZIKV [8]): did not exhibit antiviral activity
